Results reported in US20150157588A1, “Pharmaceutical Composition Comprising Amino-Phenyl-Acetic Acid Octadec-(Z)-9-enyl Ester and Use Thereof for Treating Tumors” (Yeda Research and Development Co., Ltd., priority 2012, published 2015).

System: anti-CD3-activated T cells
Assay: Microarray gene expression, T cells activated by anti-CD3 antibody
Format: cell-based, human
Conditions: for Fold change CCL7: 208075_s_at; for Fold change INDO: 210029_at; for Fold change RSAD2: 213797_at; for Fold change LYZ /// RFK: 213975_s_at; for Fold change CCL8: 214038_at; for Fold change CXCL5: 215101_s_at; for Fold change ANKRD12: 216563_at; for Fold change CCL2: 216598_s_at; for Fold change HIG2: 218507_at; for Fold change C1orf165: 219670_at; for Fold change IL1F9: 220322_at; for Fold change IL22: 221165_s_at; for Fold change PDE3B: 222330_at
Procedure: CD3 positive T cells were extracted from a healthy donor according to a standard protocol, and seeded in T cell medium including RPMI, 10% fetal calf serum, sodium pyruvate, L-Glutamine, and Penicillin/Streptomycin. Following an overnight incubation with medium, the cells were treated by incubating for 2 hours at 37° C. with amino-phenyl-acetic acid octadec-(Z)-9-enyl ester at a concentration of 10 micrograms/ml in a final volume of 10 ml in T-cell medium with or without 0.05% ethanol. After incubation, half the cells from each treatment were centrifuged and 2 ml of Tri-reagent (Sigma) were added to the pellet. The other half of the cells from each treatment were transferred to anti-CD3 antibody coated 24 well plates for an overnight incubation at 37° C. Coating plates with an anti-CD3 antibody was carried out by incubating with 2 micrograms/ml of OKT3 anti-CD3 antibody overnight at 4° C., washing three times with PBS and blocking with filtered 1% Bovine Serum Albumin for 1 hour. After activation with anti-CD3 antibody, cells were centrifuged and 2 ml of Tri-reagent were added to the pellet.
RNA was extracted from unstimulated cells and from cells activated with anti-CD3 according to standard protocols and used for hybridization with a Human Genome U133A 2.0 (Affymetrix, Catalogue number 900468), according to the manufacturer's instructions. The results of the hybridization were read by a GeneChip scanner 3000 (Affymetrix) and analyzed by QuantArray (GSI lumonics).
The effects of amino-phenyl-acetic acid octadec-(Z)-9-enyl ester in ethanol solution or in an aqueous vehicle (hereinafter termed “in PBS”) on gene expression in unstimulated T cells and T cells activated by anti-CD3 antibody were compared by microarray analysis.

[1] = anti-CD3-activated T cells, in ethanol solution vs in PBS
[2] = anti-CD3-activated T cells, in ethanol solution vs untreated
[3] = anti-CD3-activated T cells, in PBS vs untreated

CCCCCCCC/C=C\CCCCCCCCOC(=O)C(N)c1ccccc1 (centres unmarked) [amino-phenyl-acetic acid octadec-(Z)-9-enyl ester]
Fold change CCL7 [1]: 2.01
Fold change CCL7 [2]: 1.991
Fold change NTRK1 (208605_s_at, anti-CD3-activated T cells, in ethanol solution vs untreated): 2.03
Fold change TFPI2 (209277_at, anti-CD3-activated T cells, in ethanol solution vs in PBS): 2.53
Fold change TFPI2 (209277_at, anti-CD3-activated T cells, in ethanol solution vs untreated): 3.32
Fold change TFPI2 (209278_s_at, anti-CD3-activated T cells, in ethanol solution vs in PBS): 2.99
Fold change TFPI2 (209278_s_at, anti-CD3-activated T cells, in ethanol solution vs untreated): 3.87
Fold change CHI3L1 (209395_at, anti-CD3-activated T cells, in ethanol solution vs in PBS): 2.69
Fold change CHI3L1 (209395_at, anti-CD3-activated T cells, in ethanol solution vs untreated): 3.40
Fold change CHI3L1 (209396_s_at, anti-CD3-activated T cells, in ethanol solution vs in PBS): 2.15
Fold change CHI3L1 (209396_s_at, anti-CD3-activated T cells, in ethanol solution vs untreated): 2.58
Fold change INDO [1]: 2.08
Fold change INDO [2]: 2.47
Fold Change SPAG1 (210117_at, anti-CD3-activated T cells, in ethanol solution vs in PBS): −1.90
Fold change IL1A (210118_s_at, anti-CD3-activated T cells, in ethanol solution vs untreated): 2.02
Fold change PLA2G4A (210145_at, anti-CD3-activated T cells, in ethanol solution vs untreated): 2.00
Fold Change LY9 (210370_s_at, anti-CD3-activated T cells, in ethanol solution vs in PBS): 2.25
Fold change INHBA (210511_s_at, anti-CD3-activated T cells, in ethanol solution vs untreated): 1.96
Fold change FPRL1 (210772_at, anti-CD3-activated T cells, in ethanol solution vs untreated): 2.00
Fold change PLAUR (210845_s_at, anti-CD3-activated T cells, in ethanol solution vs in PBS): 2.01
Fold change PLAUR (210845_s_at, anti-CD3-activated T cells, in ethanol solution vs untreated): 2.02
Fold change LYST (210943_s_at, anti-CD3-activated T cells, in ethanol solution vs untreated): 2.45
Fold change SERPINA1 (211429_s_at, anti-CD3-activated T cells, in ethanol solution vs untreated): 2.06
Fold change IL8 (211506_s_at, anti-CD3-activated T cells, in ethanol solution vs untreated): 2.69
Fold change PLAUR (211924_s_at, anti-CD3-activated T cells, in ethanol solution vs untreated): 1.91
Fold Change MCM4 (212141_at, anti-CD3-activated T cells, in ethanol solution vs in PBS): −1.98
Fold Change MCM4 (212142_at, anti-CD3-activated T cells, in ethanol solution vs in PBS): −2.80
Fold change IL1RN (212657_s_at, anti-CD3-activated T cells, in ethanol solution vs untreated): 1.98
Fold change IL1RN (212659_s_at, anti-CD3-activated T cells, in ethanol solution vs untreated): 1.90
Fold change RSAD2 [1]: 3.11
Fold change RSAD2 [2]: 2.28
Fold change LYZ /// RFK [1]: 2.02
Fold change LYZ /// RFK [2]: 2.00
Fold change CCL8 [1]: 2.33
Fold change CCL8 [2]: 2.23
Fold change CXCL5 [3]: 1.995
Fold change CXCL5 [2]: 2.31
Fold change SOD2 (215223_s_at, anti-CD3-activated T cells, in ethanol solution vs untreated): 1.95
Fold change SNX9 (215284_at, anti-CD3-activated T cells, in ethanol solution vs untreated): 2.44
Fold change LYST (215415_s_at, anti-CD3-activated T cells, in ethanol solution vs untreated): 2.09
Fold Change LY9 (215967_s_at, anti-CD3-activated T cells, in ethanol solution vs in PBS): 2.05
Fold Change LY9 (215967_s_at, anti-CD3-activated T cells, in ethanol solution vs untreated): 2.2
Fold change IL1RN (216243_s_at, anti-CD3-activated T cells, in ethanol solution vs untreated): 1.99
Fold change ANKRD12 [3]: 1.94
Fold change ANKRD12 [2]: 2.48
Fold change probeset 216575_at [1]: 2.69
Fold change probeset 216575_at [2]: 2.31
Fold change CCL2 [1]: 5.27
Fold change CCL2 [2]: 5.00
Fold change SLC7A11 (217678_at, anti-CD3-activated T cells, in ethanol solution vs untreated): 1.92
Fold Change TNS3 (217853_at, anti-CD3-activated T cells, in ethanol solution vs in PBS): 2.00
Fold change FLJ20273 (218035_s_at, anti-CD3-activated T cells, in ethanol solution vs untreated): 2.17
Fold change HIG2 [1]: −2.31
Fold change HIG2 [2]: −2.17
Fold Change DTL (218585_s_at, anti-CD3-activated T cells, in ethanol solution vs in PBS): −1.93
Fold change ANKRD11 (219437_s_at, anti-CD3-activated T cells, in ethanol solution vs untreated): 2.84
Fold change C1orf165 [1]: −2.22
Fold change C1orf165 [2]: −2.29
Fold change IL1F9 [1]: 2.74
Fold change IL1F9 [2]: 3.10
Fold change MCM10 (220651_s_at, anti-CD3-activated T cells, in ethanol solution vs untreated): −2.05
Fold change IL22 [1]: −3.03
Fold change IL22 [2]: −2.63
Fold Change BNIP3L (221478_at, anti-CD3-activated T cells, in ethanol solution vs in PBS): −2.45
Fold Change BNIP3L (221478_at, anti-CD3-activated T cells, in ethanol solution vs untreated): −2.28
Fold Change BNIP3L (221479_s_at, anti-CD3-activated T cells, in ethanol solution vs in PBS): −2.00
Fold Change GINS2 (221521_s_at, anti-CD3-activated T cells, in ethanol solution vs in PBS): −1.99
Fold change GRSF1 (221917_s_at, anti-CD3-activated T cells, in PBS vs untreated): 1.92
Fold change PDE3B [1]: 1.99
Fold change PDE3B [2]: 1.97
down-regulated genes (activated T cells, in PBS vs untreated): no down-regulated genes
